Measurements taken from the NIST ThermoML archive (doi:10.1016/j.tca.2004.08.013).
Numbers after ± are expanded uncertainties.

Assay: xn = mol fraction of the nth substance listed
Conditions: 101.3 kPa, Liquid

CCCN [propan-1-amine] + ClC(Cl)Cl
Conditions	mass density, 303.15 K [kg/m3]	mass density, 313.15 K [kg/m3]	viscosity, 303.15 K [mPa·s]	viscosity, 313.15 K [mPa·s]
x1 = 0.01	1463.1 ± 1.3	1441.12 ± 1.3	0.523 ± 0.008	0.474 ± 0.007
x1 = 0.0207	1454.77 ± 1.3	1433.07 ± 1.3	0.526 ± 0.008	0.478 ± 0.007
x1 = 0.0296	1447.98 ± 1.3	1426.56 ± 1.2	0.529 ± 0.008	0.481 ± 0.007
x1 = 0.0426	1437.89 ± 1.3	1416.8 ± 1.2	0.533 ± 0.008	0.485 ± 0.007
x1 = 0.0491	1432.95 ± 1.3	1411.95 ± 1.2	0.536 ± 0.008	0.488 ± 0.007
x1 = 0.0595	1424.84 ± 1.2	1403.97 ± 1.2	0.539 ± 0.008	0.491 ± 0.007
x1 = 0.0689	1417.67 ± 1.2	1396.96 ± 1.2	0.542 ± 0.008	0.495 ± 0.007
x1 = 0.0796	1409.35 ± 1.2	1388.75 ± 1.2	0.544 ± 0.008	0.496 ± 0.007
x1 = 0.096	1396.86 ± 1.2	1376.41 ± 1.1	0.548 ± 0.008	0.5 ± 0.007

CCCCN(CCCC)CCCC [tributylamine] + ClC(Cl)Cl
Conditions	mass density, 303.15 K [kg/m3]	mass density, 313.15 K [kg/m3]	viscosity, 303.15 K [mPa·s]	viscosity, 313.15 K [mPa·s]
x1 = 0.0102	1450.1 ± 1.3	1428.49 ± 1.3	0.533 ± 0.008	0.479 ± 0.007
x1 = 0.0205	1430.19 ± 1.3	1409.15 ± 1.2	0.545 ± 0.008	0.488 ± 0.007
x1 = 0.0308	1410.92 ± 1.2	1390.4 ± 1.2	0.557 ± 0.008	0.496 ± 0.007
x1 = 0.0404	1393.58 ± 1.2	1373.58 ± 1.1	0.569 ± 0.008	0.504 ± 0.008
x1 = 0.0505	1376.08 ± 1.2	1356.5 ± 1.1	0.583 ± 0.008	0.513 ± 0.008
x1 = 0.0598	1360.44 ± 1.1	1341.35 ± 1.1	0.593 ± 0.009	0.522 ± 0.008
x1 = 0.0695	1344.77 ± 1.1	1326.07 ± 1.1	0.606 ± 0.009	0.529 ± 0.008
x1 = 0.0799	1328.42 ± 1.1	1310.05 ± 1	0.615 ± 0.009	0.538 ± 0.008
x1 = 0.0856	1319.72 ± 1	1301.56 ± 1	0.621 ± 0.009	0.545 ± 0.008

CCN(CC)CC [triethylamine] + C1COCCO1
303.15 K
Conditions	mass density [kg/m3]	viscosity [mPa·s]
x1 = 0.0138	1015.32 ± 0.55	1.059 ± 0.014
x1 = 0.0232	1010.65 ± 0.54	1.042 ± 0.014
x1 = 0.0349	1004.86 ± 0.53	1.018 ± 0.014
x1 = 0.0453	999.87 ± 0.52	0.998 ± 0.014
x1 = 0.0551	995.17 ± 0.52	0.98 ± 0.013
x1 = 0.0691	988.57 ± 0.52	0.955 ± 0.013
x1 = 0.0803	983.41 ± 0.52	0.932 ± 0.013
x1 = 0.0909	978.57 ± 0.52	0.914 ± 0.012
x1 = 0.1006	974.22 ± 0.52	0.899 ± 0.012
x1 = 0.1128	968.78 ± 0.52	0.877 ± 0.012

CCN(CC)CC [triethylamine] + CCC(C)=O
303.15 K
Conditions	mass density [kg/m3]	viscosity [mPa·s]
x1 = 0.011	798.96 ± 0.69	0.362 ± 0.006
x1 = 0.0217	798.22 ± 0.69	0.36 ± 0.006
x1 = 0.0315	797.6 ± 0.69	0.357 ± 0.006
x1 = 0.0413	796.87 ± 0.69	0.355 ± 0.006
x1 = 0.0508	796.32 ± 0.69	0.353 ± 0.006
x1 = 0.0597	795.5 ± 0.69	0.351 ± 0.006
x1 = 0.0697	794.8 ± 0.69	0.347 ± 0.006
x1 = 0.0801	794.25 ± 0.69	0.344 ± 0.006
x1 = 0.0915	793.37 ± 0.69	0.341 ± 0.006
x1 = 0.1022	792.79 ± 0.69	0.338 ± 0.006

CCN(CC)CC [triethylamine] + CCCCOC(C)=O
303.15 K
Conditions	mass density [kg/m3]	viscosity [mPa·s]
x1 = 0.0065	870.3 ± 0.61	0.641 ± 0.009
x1 = 0.0144	869.1 ± 0.61	0.638 ± 0.009
x1 = 0.0226	867.85 ± 0.61	0.631 ± 0.009
x1 = 0.0293	866.83 ± 0.61	0.628 ± 0.009
x1 = 0.0378	865.53 ± 0.61	0.623 ± 0.009
x1 = 0.0454	864.42 ± 0.61	0.618 ± 0.009
x1 = 0.0509	863.54 ± 0.61	0.613 ± 0.009
x1 = 0.0596	862.22 ± 0.61	0.607 ± 0.009
x1 = 0.0668	861.13 ± 0.61	0.603 ± 0.009
x1 = 0.0733	860.14 ± 0.61	0.599 ± 0.009

CCN(CC)CC [triethylamine] + CCOC(C)=O
303.15 K
Conditions	mass density [kg/m3]	viscosity [mPa·s]
x1 = 0.0127	885.47 ± 0.59	0.395 ± 0.006
x1 = 0.0205	883.69 ± 0.59	0.389 ± 0.006
x1 = 0.0323	881 ± 0.59	0.386 ± 0.006
x1 = 0.0407	879.1 ± 0.59	0.382 ± 0.006
x1 = 0.0522	876.53 ± 0.6	0.379 ± 0.006
x1 = 0.0608	874.62 ± 0.6	0.376 ± 0.006
x1 = 0.0702	872.41 ± 0.6	0.374 ± 0.006
x1 = 0.0783	870.58 ± 0.6	0.371 ± 0.006
x1 = 0.09	867.91 ± 0.6	0.369 ± 0.006
x1 = 0.0996	866.05 ± 0.6	0.367 ± 0.006

CCN(CC)CC [triethylamine] + Clc1ccccc1
303.15 K
Conditions	mass density [kg/m3]	viscosity [mPa·s]
x1 = 0.0118	1089.87 ± 0.65	0.709 ± 0.01
x1 = 0.0193	1086.26 ± 0.64	0.702 ± 0.01
x1 = 0.0299	1081.32 ± 0.63	0.694 ± 0.01
x1 = 0.0415	1075.87 ± 0.62	0.685 ± 0.01
x1 = 0.0493	1072.21 ± 0.61	0.677 ± 0.01
x1 = 0.0595	1067.48 ± 0.6	0.672 ± 0.01
x1 = 0.071	1062.15 ± 0.59	0.664 ± 0.009
x1 = 0.0792	1058.37 ± 0.59	0.658 ± 0.009
x1 = 0.0893	1053.74 ± 0.58	0.652 ± 0.009
x1 = 0.0994	1049.13 ± 0.57	0.645 ± 0.009

CCN(CC)CC [triethylamine] + O=[N+]([O-])c1ccccc1
303.15 K
Conditions	mass density [kg/m3]	viscosity [mPa·s]
x1 = 0.0113	1186.81 ± 0.81	1.59 ± 0.021
x1 = 0.0201	1181.7 ± 0.79	1.569 ± 0.021
x1 = 0.0288	1176.68 ± 0.78	1.547 ± 0.02
x1 = 0.0404	1169.97 ± 0.77	1.521 ± 0.02
x1 = 0.0506	1164.25 ± 0.76	1.499 ± 0.02
x1 = 0.0601	1158.7 ± 0.75	1.48 ± 0.02
x1 = 0.0688	1153.74 ± 0.74	1.466 ± 0.019
x1 = 0.0819	1146.33 ± 0.72	1.44 ± 0.019
x1 = 0.091	1141.21 ± 0.71	1.422 ± 0.019
x1 = 0.1005	1136.48 ± 0.7	1.407 ± 0.019
